Blank lines part the entries; values can stand above or below the molecule they belong to. Active and inactive are the calls of the source.
What was measured:
Phospholipase A2 = Phospholipase A2 (Homo sapiens, UniProt P04054); type: functional;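 also: confirmatory dose-response counterscreen on phospholipase A2, testing hits that came from an ultra-high-throughput screen for ATG4B inhibitors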
Cysteine protease ATG4B = Cysteine protease ATG4B (Homo sapiens, UniProt Q9Y4P1); type: functional;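 also: Fluorescence-based dose-response confirmation assay measuring inhibition of ATG4B activity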
Chain of Cysteine protease ATG4B (Q9Y4P1 whole entry): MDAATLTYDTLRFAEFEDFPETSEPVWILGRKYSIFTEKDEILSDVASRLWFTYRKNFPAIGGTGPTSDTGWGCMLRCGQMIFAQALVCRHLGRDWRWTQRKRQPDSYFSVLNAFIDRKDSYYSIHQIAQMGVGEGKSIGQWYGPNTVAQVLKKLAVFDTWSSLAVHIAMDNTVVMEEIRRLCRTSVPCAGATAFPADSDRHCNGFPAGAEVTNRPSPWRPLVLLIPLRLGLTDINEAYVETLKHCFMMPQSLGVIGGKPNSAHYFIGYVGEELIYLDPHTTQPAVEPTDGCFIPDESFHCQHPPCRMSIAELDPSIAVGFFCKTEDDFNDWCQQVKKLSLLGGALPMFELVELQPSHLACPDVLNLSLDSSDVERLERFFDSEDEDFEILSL

[1] = C. albicans growth with fluconazole, confirmation, fluorescence, retest (AID 2467); type: functional, cell-based
[2] = Luminescence Cell-Based Dose Retest to Confirm Inhibitors of Cancer Stem Cells. [Related pubchem assays (depositor defined):AID2717, AID2721]; type: functional; settings: Homo sapiens
[3] = target: T1, Nuclear receptor subfamily 0 group B member 1 (Homo sapiens, UniProt P51843); experiment: Luminescence-based cell-based high throughput dose response assay for inhibitors of the orphan nuclear receptor subfamily 0, group B, member 1 (DAX1; NR0B1). [Related pubchem assays (depositor defined):AID504766, AID504790]; type: functional
T1 sequence (P51843 whole entry): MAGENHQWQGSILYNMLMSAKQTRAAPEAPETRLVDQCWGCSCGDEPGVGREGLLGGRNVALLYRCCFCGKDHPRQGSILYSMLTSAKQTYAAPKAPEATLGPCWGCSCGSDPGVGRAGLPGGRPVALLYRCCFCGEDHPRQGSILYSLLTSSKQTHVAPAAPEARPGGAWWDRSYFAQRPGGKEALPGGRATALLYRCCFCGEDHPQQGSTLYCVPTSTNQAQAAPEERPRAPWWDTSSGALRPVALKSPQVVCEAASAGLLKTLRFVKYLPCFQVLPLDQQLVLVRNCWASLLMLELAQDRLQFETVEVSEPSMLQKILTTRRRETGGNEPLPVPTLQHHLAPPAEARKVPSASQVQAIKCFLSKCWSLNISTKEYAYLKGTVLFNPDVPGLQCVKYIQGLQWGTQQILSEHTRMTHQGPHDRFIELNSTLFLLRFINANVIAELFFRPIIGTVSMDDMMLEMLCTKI

HEK293 [4] = experiment: cells; type: functional, cell-based; settings: Homo sapiens
[5] = NIH-3T3 fibroblast cytotoxicity, dose response, cytotoxicity control, cell-based, fluorescence, Alamar Blue, secondary assay (AID 2327); type: functional;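 also: NIH-3T3 mouse fibroblasts cultured with fluconazole at 8 µg/mL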
[6] = target: Voltage-gated inwardly rectifying potassium channel KCNH2 (Homo sapiens, UniProt Q12809); settings: Potency;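 also: confirmatory quantitative high-throughput screen measuring inhibition of hERG channel activity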
Chain of Voltage-gated inwardly rectifying potassium channel KCNH2 (Q12809 whole entry): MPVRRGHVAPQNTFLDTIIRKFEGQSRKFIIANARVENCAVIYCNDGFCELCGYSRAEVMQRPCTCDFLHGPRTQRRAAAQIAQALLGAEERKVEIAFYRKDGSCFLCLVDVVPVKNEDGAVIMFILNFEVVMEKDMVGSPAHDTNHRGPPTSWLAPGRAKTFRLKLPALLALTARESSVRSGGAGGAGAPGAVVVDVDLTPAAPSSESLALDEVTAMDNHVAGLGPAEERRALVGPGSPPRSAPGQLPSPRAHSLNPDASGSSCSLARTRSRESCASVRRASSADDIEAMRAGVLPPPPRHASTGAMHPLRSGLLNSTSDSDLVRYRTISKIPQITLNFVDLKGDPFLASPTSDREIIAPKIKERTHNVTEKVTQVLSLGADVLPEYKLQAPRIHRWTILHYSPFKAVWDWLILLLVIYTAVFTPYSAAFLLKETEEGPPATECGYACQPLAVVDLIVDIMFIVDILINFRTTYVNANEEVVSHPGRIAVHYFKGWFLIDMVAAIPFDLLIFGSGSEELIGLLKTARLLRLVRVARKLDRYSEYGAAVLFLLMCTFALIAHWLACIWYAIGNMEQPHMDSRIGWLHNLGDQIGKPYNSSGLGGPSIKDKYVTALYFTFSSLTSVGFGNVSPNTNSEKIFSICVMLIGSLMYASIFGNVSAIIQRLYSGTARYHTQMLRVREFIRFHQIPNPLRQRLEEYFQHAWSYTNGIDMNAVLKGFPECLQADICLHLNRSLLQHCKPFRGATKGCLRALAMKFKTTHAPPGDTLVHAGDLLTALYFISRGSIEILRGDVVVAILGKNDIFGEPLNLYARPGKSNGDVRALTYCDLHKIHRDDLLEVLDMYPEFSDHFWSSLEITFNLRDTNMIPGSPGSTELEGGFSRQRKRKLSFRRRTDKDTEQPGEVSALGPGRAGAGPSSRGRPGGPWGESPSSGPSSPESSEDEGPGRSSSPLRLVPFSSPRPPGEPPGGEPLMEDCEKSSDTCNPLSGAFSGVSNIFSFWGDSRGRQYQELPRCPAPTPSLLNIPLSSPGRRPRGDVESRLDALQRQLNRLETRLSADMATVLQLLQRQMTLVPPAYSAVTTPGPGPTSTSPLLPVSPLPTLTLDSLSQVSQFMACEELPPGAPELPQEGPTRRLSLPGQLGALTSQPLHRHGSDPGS

[7] = target: 5-hydroxytryptamine receptor 2A (Mus musculus, UniProt P35363); type: functional, cell-based;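 also: CHO-K1 cells with tagged receptor and beta-arrestin; agonist potency measured as compound-induced activation of the receptor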
Chain of 5-hydroxytryptamine receptor 2A (P35363 whole entry): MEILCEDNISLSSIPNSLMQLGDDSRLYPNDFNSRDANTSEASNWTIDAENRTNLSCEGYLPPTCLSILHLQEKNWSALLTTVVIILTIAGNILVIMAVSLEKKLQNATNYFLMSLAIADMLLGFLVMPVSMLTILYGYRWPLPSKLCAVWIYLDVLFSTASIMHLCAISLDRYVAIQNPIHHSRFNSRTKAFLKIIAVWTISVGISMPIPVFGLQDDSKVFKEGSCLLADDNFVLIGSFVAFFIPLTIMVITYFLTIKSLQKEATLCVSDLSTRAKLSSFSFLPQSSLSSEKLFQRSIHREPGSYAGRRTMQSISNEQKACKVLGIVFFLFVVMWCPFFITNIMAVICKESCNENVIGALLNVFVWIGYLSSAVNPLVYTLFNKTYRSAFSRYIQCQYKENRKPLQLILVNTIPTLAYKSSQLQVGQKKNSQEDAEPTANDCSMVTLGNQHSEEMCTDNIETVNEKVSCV

Mu-type opioid receptor = Mu-type opioid receptor (Homo sapiens, UniProt P35372); type: functional, cell-based;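 also: U2OS cells with beta-arrestin recruitment to OPRM1 by beta-gal complementation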
Chain of Mu-type opioid receptor (P35372 whole entry): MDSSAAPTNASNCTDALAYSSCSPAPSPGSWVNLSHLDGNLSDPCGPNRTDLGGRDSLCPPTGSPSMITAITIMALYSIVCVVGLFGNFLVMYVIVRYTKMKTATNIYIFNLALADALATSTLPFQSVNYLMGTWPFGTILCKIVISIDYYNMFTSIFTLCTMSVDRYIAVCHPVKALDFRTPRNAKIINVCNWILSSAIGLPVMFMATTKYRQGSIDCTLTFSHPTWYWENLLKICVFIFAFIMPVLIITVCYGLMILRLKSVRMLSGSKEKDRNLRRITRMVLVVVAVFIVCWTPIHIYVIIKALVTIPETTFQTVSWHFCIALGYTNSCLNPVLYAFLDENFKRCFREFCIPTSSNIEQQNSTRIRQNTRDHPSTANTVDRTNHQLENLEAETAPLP

HEK293 [8] = experiment: optical interference in Abeta FP readout, dose response, artefact control for IDE activator project, biochemical, fluorescence polarization (AID 588442); type: functional, cell-based; settings: Homo sapiens
Insulin-degrading enzyme [9] = target: T2, Insulin-degrading enzyme (Homo sapiens, UniProt P14735); experiment: activators of recombinant IDE enzyme, dose response, counter-screen for IDE activator project, biochemical, fluorescence polarization (AID 588681)
T2 sequence (P14735 whole entry): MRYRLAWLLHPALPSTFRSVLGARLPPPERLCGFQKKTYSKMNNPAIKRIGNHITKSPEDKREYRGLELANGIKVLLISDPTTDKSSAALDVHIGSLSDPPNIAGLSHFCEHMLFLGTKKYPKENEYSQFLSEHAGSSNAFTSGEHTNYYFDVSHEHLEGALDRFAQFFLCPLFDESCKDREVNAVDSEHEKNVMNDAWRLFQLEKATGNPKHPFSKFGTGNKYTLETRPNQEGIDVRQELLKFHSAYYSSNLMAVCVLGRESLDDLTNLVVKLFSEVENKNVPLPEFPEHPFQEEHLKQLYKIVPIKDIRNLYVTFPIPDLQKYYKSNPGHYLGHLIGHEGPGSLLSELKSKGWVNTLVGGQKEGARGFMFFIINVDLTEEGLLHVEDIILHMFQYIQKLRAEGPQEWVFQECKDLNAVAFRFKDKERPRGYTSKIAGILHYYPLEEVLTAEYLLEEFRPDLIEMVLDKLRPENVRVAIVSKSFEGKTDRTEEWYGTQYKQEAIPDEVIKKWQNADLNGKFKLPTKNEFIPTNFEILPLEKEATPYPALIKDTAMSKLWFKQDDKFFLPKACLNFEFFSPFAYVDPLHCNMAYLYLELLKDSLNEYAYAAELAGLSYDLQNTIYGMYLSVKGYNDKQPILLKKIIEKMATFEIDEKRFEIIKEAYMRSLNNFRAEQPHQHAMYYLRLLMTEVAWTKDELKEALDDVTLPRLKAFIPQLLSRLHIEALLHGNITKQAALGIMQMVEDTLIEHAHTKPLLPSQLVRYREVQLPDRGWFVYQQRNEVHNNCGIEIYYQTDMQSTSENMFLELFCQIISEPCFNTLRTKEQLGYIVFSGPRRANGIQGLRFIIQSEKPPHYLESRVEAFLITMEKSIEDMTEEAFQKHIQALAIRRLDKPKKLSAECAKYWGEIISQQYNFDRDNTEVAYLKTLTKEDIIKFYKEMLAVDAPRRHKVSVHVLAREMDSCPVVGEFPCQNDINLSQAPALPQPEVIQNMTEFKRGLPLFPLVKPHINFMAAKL

Insulin-degrading enzyme [10] = target: T2, Insulin-degrading enzyme; experiment: activators of endogenous IDE in HEK cells, dose response, cell-based, fluorescence polarization (AID 588439); type: functional
HEK293 [11] = experiment: HEK cell cytotoxicity by LDH release, dose response, cytotoxicity control for IDE activator project, fluorescence, HEK cells (AID 588440); type: functional, cell-based; settings: Homo sapiens;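 also: cytotoxicity by LDH release measuring loss of membrane integrity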
[12] = target: T3, Calpain-2 catalytic subunit (Sus scrofa, UniProt P43367); experiment: pig calpain II inhibitor potency, dose response, biochemical, fluorogenic peptide substrate (AID 1420); type: functional
T3 sequence (P43367 whole entry): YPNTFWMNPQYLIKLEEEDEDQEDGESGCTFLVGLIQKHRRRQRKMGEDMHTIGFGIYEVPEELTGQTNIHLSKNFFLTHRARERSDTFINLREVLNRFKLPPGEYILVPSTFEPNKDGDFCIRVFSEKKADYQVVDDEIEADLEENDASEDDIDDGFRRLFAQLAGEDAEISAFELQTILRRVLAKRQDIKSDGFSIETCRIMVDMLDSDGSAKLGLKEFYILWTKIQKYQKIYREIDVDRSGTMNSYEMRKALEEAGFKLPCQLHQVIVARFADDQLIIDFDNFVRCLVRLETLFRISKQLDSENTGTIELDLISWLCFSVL

[13] = target: Beta-2 adrenergic receptor (Homo sapiens, UniProt P07550); experiment: beta2AR agonists driving receptor internalization, dose response, cell-based, FAP fluorogen, flow cytometry, cherry pick 1 (AID 588763); type: functional
Chain of Beta-2 adrenergic receptor (P07550 whole entry): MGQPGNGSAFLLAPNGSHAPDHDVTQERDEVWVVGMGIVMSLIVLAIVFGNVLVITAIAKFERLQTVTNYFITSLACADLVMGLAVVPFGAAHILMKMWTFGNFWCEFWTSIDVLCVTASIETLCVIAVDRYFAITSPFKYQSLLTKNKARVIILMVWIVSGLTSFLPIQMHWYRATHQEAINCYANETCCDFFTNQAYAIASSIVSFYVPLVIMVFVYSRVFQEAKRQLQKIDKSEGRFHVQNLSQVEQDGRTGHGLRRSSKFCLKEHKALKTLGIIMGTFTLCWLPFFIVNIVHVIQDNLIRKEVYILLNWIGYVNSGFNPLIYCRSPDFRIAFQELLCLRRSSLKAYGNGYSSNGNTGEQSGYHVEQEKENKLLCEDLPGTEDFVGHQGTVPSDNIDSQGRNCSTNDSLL

Chain of Phospholipase A2 (P04054 whole entry): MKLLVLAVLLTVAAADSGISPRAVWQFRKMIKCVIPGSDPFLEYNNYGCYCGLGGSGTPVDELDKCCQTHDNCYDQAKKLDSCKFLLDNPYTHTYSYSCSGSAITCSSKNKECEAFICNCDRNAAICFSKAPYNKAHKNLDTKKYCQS

IC50 (Phospholipase A2): 7.12 µM (active)
IC50 (Cysteine protease ATG4B): 10.8 µM (active)
Structure (SMILES): CC(C)(C)n1ncc2c(=O)n(Cc3ccccc3Br)cnc21

Structure (SMILES): Cc1cc(C(=O)NNc2ccc(F)cc2F)no1
EC50 [1]: > 38 µM (not active)
AC50 [2]: 1.1 µM (active)
IC50 [3]: > 67.5 µM (inactive)
IC50 (HEK293 [4]): > 67.5 µM (inactive)
EC50 [5]: 2.93 µM (active)

Structure (SMILES): CCCN1CC[C@@H]2c3cc(O)ccc3CC[C@@H]21
AC50 [6]: 35.5 µM (inconclusive)
EC50 [7]: 76.1 µM (inactive)
EC50 (Mu-type opioid receptor): 92.5 µM (inactive)

Structure (SMILES): CC(=O)Nc1ccc(N2S(=O)(=O)c3ccccc3S2(=O)=O)cc1
EC50 (HEK293 [8]): > 54.7 µM (inactive)
EC50 (Insulin-degrading enzyme [9]): > 54.7 µM (inactive)
EC50 (Insulin-degrading enzyme [10]): > 54.7 µM (inactive)
IC50 (HEK293 [11]): > 89.2 µM (inactive)

IC50 (Phospholipase A2): 11.2 µM (active)
IC50 (Cysteine protease ATG4B): 16.3 µM (active)
IC50 [12]: 6.14 µM (not active)
Structure (SMILES): O=C(COC(=O)c1cc(Cl)ccc1[N+](=O)[O-])NCc1ccc(Cl)cc1Cl

EC50 [13]: 0.522 µM (active)
Structure (SMILES): CC1CCC(NC(=O)CCS(=O)(=O)c2ccc3c(c2)CCN3C(=O)C2CC2)CC1 (stereo not drawn)

Source: ChEMBL document CHEMBL1201862, “PubChem BioAssay data set” (2004)
